Results as given in PubChem BioAssay (NCI).
Values joined by “and” are separate entries in the source; they are usually repeats but may differ in a detail not shown here. Identical values can stand only once.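 Growth conditions: 96-well plates. Treatment: test compound, 48 hours, 5 concentrations. Analysis: linear interpolation between bracketing concentrations; unreached endpoints set to highest concentration. At the GI50, growth is halved. TGI denotes the concentration required for complete inhibition of growth.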

Columns and labels:
Experiment in all cases: NCI anticancer screen, dose series, 48 h
[1] = test system: A498 renal
[2] = test system: NCI/ADR-RES ovarian
[3] = test system: NCI-H23 lung
[4] = test system: OVCAR-4 ovarian
[5] = test system: T-47D breast
[6] = test system: ACHN renal
[7] = test system: CAKI-1 renal
[8] = test system: OVCAR-3 ovarian
[9] = test system: SK-OV-3 ovarian
[10] = test system: NCI-H226 lung

Structure (SMILES) | TGI [1] | TGI [2] | TGI [3] | TGI [4] | TGI [5] | TGI [6] | TGI [7] | TGI [8] | TGI [9] | TGI [10] | GI50 [4] | GI50 [1] | GI50 [3] | GI50 [5] | GI50 [6] | GI50 [7] | GI50 [8] | GI50 [9] | GI50 [10]
COC(=O)CCCC(=O)NC1=C(NCc2ccccc2)C(=O)c2ccccc2C1=O | > 100 µM | > 100 µM | > 100 µM | > 100 µM | > 100 µM | > 100 µM | > 100 µM | 90.6 µM | > 100 µM |  |  |  |  |  |  |  |  |  | 
CCN(CC)c1nc(N(C)C)c2ccccc2n1 |  | > 100 µM | > 100 µM | > 100 µM | > 100 µM | > 100 µM | > 100 µM |  | > 100 µM | 69.3 µM |  |  |  |  |  |  |  |  | 
CC1OC2OC3C(OCC(O)C3O)OC(=O)[C@]34CCC(C)(C)CC3C3=CCC5[C@@]6(C)C[C@H](O)[C@H](OC7OC(CO)C(O)C(O)C7OC7OCC(OC(=O)CC(C)(O)CC(=O)OC1C(OC1OC(CO)C(O)C(O)C1O)C2O)C(O)C7O)[C@@](C)(CO)C6CC[C@@]5(C)[C@]3(C)CC4 (stereo partly specified) |  | 19.1 µM | 14.1 µM | 17.1 µM | 20.3 µM | 17.9 µM | 16.1 µM | 19.3 µM | 22.8 µM | 34 µM |  |  |  |  |  |  |  |  | 
CCOC(=O)C(=O)C(=O)NN(C)C1=NCCN1 |  | > 100 µM | > 100 µM | > 100 µM | > 100 µM | > 100 µM |  | > 100 µM | > 100 µM | > 100 µM |  |  |  |  |  |  |  |  | 
COC1(OC)c2no[n+]([O-])c2C(OC)(OC)c2c1no[n+]2[O-] | 34.6 µM | 62.8 µM | 28.2 µM | > 100 µM | > 100 µM | 68.5 µM | 92.9 µM | 28.3 µM |  | 64 µM |  |  |  |  |  |  |  |  | 
CC(C)C(=O)Oc1cc2c(=O)oc3c(OC(=O)C(C)C)c(OC(=O)C(C)C)cc4c(=O)oc(c1OC(=O)C(C)C)c2c34 | > 100 µM | > 100 µM | > 100 µM | > 100 µM |  | > 100 µM | > 100 µM | > 100 µM | > 100 µM | > 100 µM |  |  |  |  |  |  |  |  | 
C(/Cc1ccc2c(c1)OCO2)=N\NC1=NCCCN1 | 72.8 µM | > 100 µM | > 100 µM | > 100 µM | > 100 µM | > 100 µM |  | > 100 µM | > 100 µM | > 100 µM |  |  |  |  |  |  |  |  | 
CCCNc1ncnc2[nH]ncc12 | > 100 µM | > 100 µM | > 100 µM | > 100 µM | > 100 µM | > 100 µM | > 100 µM | > 100 µM | > 100 µM |  |  |  |  |  |  |  |  |  | 
CC(=O)Nc1cc(Nc2cc(=O)[nH]c(=O)[nH]2)ccc1C | > 100 µM | > 100 µM |  | > 100 µM |  | > 100 µM |  | > 100 µM |  | > 100 µM |  |  |  |  |  |  |  |  | 
C=CC1CN2CCC1CC2C(O)c1ccnc2ccccc12 (stereo unspecified) |  | > 100 µM | > 100 µM | > 100 µM | > 100 µM | > 100 µM | > 100 µM | > 100 µM | > 100 µM | > 100 µM | > 100 µM |  |  |  |  |  |  |  | 
CN(C)c1ccc(/C=C2\N=C(c3ccccc3)N(c3ccc4c(c3)Sc3cc(N5C(=O)/C(=C/c6ccc(N(C)C)cc6)N=C5c5ccccc5)ccc3N4)C2=O)cc1 | 31.8 µM | 89.2 µM |  | 61 µM | 48 µM | 30.4 µM | 37.4 µM | 25.8 µM | 26.7 µM |  |  |  |  |  |  |  |  |  | 
CC(=O)OC1CC2C(=O)C(=O)C1(C)C2(C)C (stereo unspecified) | > 100 µM | > 100 µM | > 100 µM | > 100 µM | > 100 µM | > 100 µM |  | > 100 µM | > 100 µM | > 100 µM |  |  |  |  |  |  |  |  | 
CO[C@]1(CN2CCN3CCCC[C@@H]3C2)/C=C/C[C@H](C)[C@@H](C)S(=O)(=O)NC(=O)c2ccc3c(c2)N(C[C@@H]2CC[C@H]21)C[C@@]1(CCCc2cc(Cl)ccc21)CO3 | 6.48 µM |  | 2.29 µM | 6.61 µM | 5.11 µM | 3.9 µM | 4.24 µM | 3.03 µM | 7.5 µM |  | 1.69 µM | 2.68 µM | 1.03 µM | 1.87 µM | 1.86 µM | 1.79 µM | 1.62 µM | 2.67 µM | 
C=C(C)[C@@H]1CC[C@]2(C(=O)O)CC[C@]3(C)[C@H](CCC4[C@@]5(C)CC[C@H](C(=O)/C=C/c6ccc(O)c(O)c6)C(C)(C)[C@@H]5CC[C@]43C)[C@@H]12 (stereo partly specified) |  | > 100 µM | 9.62 µM | > 100 µM | 95.7 µM | 6.51 µM | 16.8 µM | 22.5 µM | 19.4 µM |  |  |  |  |  |  |  |  |  | 
O=C(NNCc1ccc(Cl)cc1)Nc1cccc2ccccc12 |  | > 100 µM | > 100 µM | > 100 µM | > 100 µM | > 100 µM | > 100 µM | > 100 µM |  | > 100 µM |  |  |  |  |  |  |  |  | 
CC(=O)CC(=O)CCC(=O)O |  |  | > 100 µM |  |  | > 100 µM | > 100 µM |  | > 100 µM | > 100 µM |  |  |  |  |  |  |  |  | 
Cc1nc(-c2cc3cc(Cl)ccc3oc2=O)cc2c1c(=O)oc1ccc(Cl)cc12 | > 100 µM | > 100 µM | > 100 µM |  | > 100 µM | > 100 µM |  | > 100 µM | > 100 µM | > 100 µM |  |  |  |  |  |  |  |  | 

Structure (SMILES) | TGI [1] | TGI [2] | TGI [3] | TGI [4] | TGI [5] | TGI [6] | TGI [7] | TGI [8] | TGI [9] | TGI [10] | GI50 [4] | GI50 [1] | GI50 [3] | GI50 [5] | GI50 [6] | GI50 [7] | GI50 [8] | GI50 [9] | GI50 [10]
CCN(CC)c1ccc2cc(-c3nc4ccccc4c(=O)[nH]3)c(=N)oc2c1 |  | > 100 µM |  | > 100 µM | > 100 µM | > 100 µM | > 100 µM |  | > 100 µM | > 100 µM |  |  |  |  |  |  |  |  | 
CSc1nc(NC(C)C)c2c(n1)Sc1nc3ccccc3n1C2O (stereo unspecified) |  |  | > 100 µM | > 100 µM | 22.4 µM | 81.8 µM | > 100 µM | 5.88 µM | > 100 µM |  |  |  |  |  |  |  |  |  | 
NC1=NCC(CN2CCCC2)O1 (stereo unspecified) | > 100 µM | > 100 µM | > 100 µM | > 100 µM | > 100 µM | > 100 µM | > 100 µM | > 100 µM | > 100 µM |  |  |  |  |  |  |  |  |  | 
C#CCC1(C(=O)OCC)C(=O)c2ccccc2N(C)C1=O (stereo unspecified) | > 100 µM |  | 36.9 µM |  |  | > 100 µM | > 100 µM | > 100 µM | > 100 µM | > 100 µM |  |  |  |  |  |  |  |  | 
Nc1ncnc2c1ncn2Cc1cccc(CCl)c1 | 30 µM | 50.8 µM | 36.5 µM | 47.3 µM |  | 37.2 µM | 37 µM | 32.3 µM |  | 33.4 µM |  |  |  |  |  |  |  |  | 
CSc1ccc(/C=C2\N=C(c3ccccc3)N(/N=C/c3cc4cc(C)ccc4nc3Cl)C2=O)cc1 | 43 µM | 78.1 µM |  | 39.3 µM | 91 µM | 35.1 µM | 45.3 µM | 48.7 µM | 66.1 µM |  |  |  |  |  |  |  |  |  | 
CC(C)(C)C1CC[C@H](O)[C@H]([C@H](O)CC2CC(=O)N(c3ccccc3)C(=O)C2)C1 (stereo partly specified) | > 100 µM | > 100 µM | > 100 µM | > 100 µM |  | > 100 µM | > 100 µM | > 100 µM |  | > 100 µM |  |  |  |  |  |  |  |  | 
CCN(CC)CCN(C(=O)C(C)(C)C)c1ccccc1N |  | > 100 µM | > 100 µM | > 100 µM |  | > 100 µM | > 100 µM | > 100 µM | > 100 µM | > 100 µM |  |  |  |  |  |  |  |  | 
CC1(C2CCC3(C)OC3C2)CO1 (stereo unspecified) |  |  | > 100 µM | > 100 µM |  | > 100 µM | > 100 µM | > 100 µM | > 100 µM | > 100 µM |  |  |  |  |  |  |  |  | 
O=C(CC1Sc2ccccc2NC1=O)Nc1ccc(Cl)cc1 (stereo unspecified) | > 100 µM |  | > 100 µM | 47.3 µM |  | > 100 µM | > 100 µM | > 100 µM | > 100 µM | > 100 µM |  |  |  |  |  |  |  |  | 
Cc1ccc(S(=O)(=O)n2cc(C#N)c(C#N)c2)cc1 | 71.9 µM | > 100 µM | 91.3 µM | > 100 µM | 72.4 µM | 40.7 µM | 59.1 µM | 46.2 µM | 91.9 µM |  |  |  |  |  |  |  |  |  | 
CCOC(=O)C1(C(F)(F)F)N=C(CC)OC(N2CCOCC2)=N1 (stereo unspecified) |  | > 100 µM | > 100 µM | > 100 µM | > 100 µM | > 100 µM | > 100 µM | > 100 µM | > 100 µM |  |  |  |  |  |  |  |  |  | 
O=C1C=CC(=O)c2c(O)c(N3CCN(CCOCCO)CC3)c(Cl)c(O)c21 | 5.65 µM [middle of 4 runs] |  |  |  |  |  |  | 2.14 µM [middle of 4 runs] | 13.5 µM and 7.9 µM and 19.9 µM | 4.68 µM [middle of 4 runs] |  | 2.57 µM [middle of 4 runs] |  |  |  | 456 nM [middle of 4 runs] |  | 4.59 µM [middle of 4 runs] | 2.69 µM
O=C1c2ccccc2C(=O)N1c1nc(-c2ccc(Cl)cc2)cc(N2N=C(c3ccc(Br)cc3)CC2c2ccccc2)n1 (stereo unspecified) | 35.4 µM | 6.05 µM | > 22.6 µM | > 33 µM | 5.26 µM | > 21.7 µM |  | 2.65 µM | > 46.1 µM | 29.8 µM |  |  |  |  |  |  |  |  | 
C/C(Nc1ccc(Cl)cc1Cl)=C1/CCOC1=O | > 100 µM | > 100 µM | > 100 µM | > 100 µM | > 100 µM | > 100 µM |  | > 100 µM |  | > 100 µM |  |  |  |  |  |  |  |  | 
COC(=O)C1=C(O)C(C(=O)OC)[C@]2(O)[C@H](C(=O)OC)[C@H]1C[C@@H](c1ccc([N+](=O)[O-])cc1)[C@H]2C(=O)OC (stereo partly specified) |  | 51.8 µM | 31.4 µM | > 100 µM | > 100 µM | 32.9 µM | > 100 µM | > 100 µM | > 100 µM | 65.1 µM |  |  |  |  |  |  |  |  | 
